This note sets out measurements from US20230323395A1, “METHODS AND COMPOSITIONS FOR THE PRODUCTION OF ADENO-[…]” (Homology Medicines, Inc., priority 2021, published 2023).

Common to all, as to format: cell-based
The test system of test [1] is HEK293 cells (AAV producer cells). Description: AAV productivity with culture media additives supplemented two hours post-transfection, shake flasks (Example 3). As to the method:
(§1) For each parameter tested, HEK293 cells were expanded by shake flask culture with a target seed density of >0.25E6 viable cells/mL and a target final density of <6E6 viable cells/mL. Expanded cells were inoculated into an Applikon 3 L Glass Bioreactor containing the appropriate amount of cell culture medium prior to transfection at a 2 L working volume.
(§2) Cell transfection was performed generally as described in Grieger et al. (2016) Molecular Therapy 24(2): 287-297. Briefly, transfection mixes were prepared by mixing calculated volumes of vector(s), transfection media, and polyethylenimine (PEI), all at ambient temperature, and allowed to equilibrate before the transfection mixes were added to the cells. […] Productivity was measured by vector genome titer and capsid yield. Vector genome (VG) titer was determined by droplet digital PCR (ddPCR) by standard methods using primer/probe sets specific to the transgene payload of the vector comprising the transgene. Capsid yield was determined using enzyme-linked immunosorbent assays (ELISAs) by standard methods with an immobilized antibody directed against an epitope of the capsid as encoded by the vector comprising the capsid sequences. Percentage of intact vector genomes (% Full capsids) was calculated by dividing the vector genome productivity determined by ddPCR by the number of capsids determined by ELISA. […]

For test [2] the test system is unchanged. Description: DMSO time course analysis of AAV productivity (Example 4). The following applies: 1.5% (v/v) DMSO added two hours pre-transfection and up to 30 minutes post-transfection; compared to the other time points tested. As to the method:
as §1, §2

The test system of test [3] is second HEK293 cell line (AAV producer cells). Description: AAV productivity with DMSO supplementation 30-120 minutes post-transfection, 3 L single-use bioreactors (Example 6). The following applies: DMSO 120 minutes vs 30 minutes post-transfection, pH 7.0, 39° C. On the procedure:
(§3) Cell transfection was performed generally as described in Grieger et al. (2016) Molecular Therapy 24(2): 287-297. Briefly, transfection mixes were prepared by mixing calculated volumes of vector(s), transfection media, and polyethylenimine (PEI), all at ambient temperature, and allowed to equilibrate before the transfection mixes were added to the cells. Post-transfection bioreactor setpoint shifts were performed 2 hours post-transfection, and cells were harvested 72 hours post-transfection. Harvested cells were lysed as described in Grieger et al. (2016) Molecular Therapy 24(2): 287-297. Crude lysate samples were collected following centrifugation to remove cellular debris. Productivity was measured by vector genome titer and capsid yield. Vector genome (VG) titer was determined by droplet digital PCR (ddPCR) by standard methods using primer/probe sets specific to the transgene payload of the vector comprising the transgene. Capsid yield was determined using enzyme-linked immunosorbent assays (ELISAs) by standard methods with an immobilized antibody directed against an epitope of the capsid as encoded by the vector comprising the capsid sequences. Percentage of intact vector genomes (% Full capsids) was calculated by dividing the vector genome productivity determined by ddPCR by the number of capsids determined by ELISA.
Based on the findings above, the effects of post-transfection pH, and the effect of supplementing the culture media with DMSO at 30-120 minutes post-transfection were further tested using a different representative AAV particle. Experiments were performed with a second HEK293 cell line according to the methods described in Examples 1 and 5 using 3 L single-use bioreactors.
AAV productivity, in terms of vector genome (VG) titer (FIG. 8A), capsid yield (FIG. 8B), and percent intact vector genomes (% Full; FIG. 8C), was measured as described in Example 1.

Test [4] has the same test system. As to the kind of experiment: AAV productivity at different DMSO concentrations, shake flasks (Example 7). As to the method: as §3
The conditions of DMSO supplementation were further tested using different representative AAV particles. Experiments were performed with a second HEK293 cell line according to the methods described in Example 1 using shake flasks.
AAV productivity, in terms of vector genome (VG) titer (FIGS. 9A and 10A), capsid yield (FIGS. 9B and 10B), and percent intact vector genomes (% Full; FIGS. 9C and 10C), was measured as described in Example 1.

Where [5] appears, read: FIG. 9, 0.5% to 2.25% DMSO two hours post-transfection, up to a DMSO concentration of 1.5%.
[6] abbreviates: FIG. 10, 0.75% DMSO two hours post-transfection compared with 0% DMSO.
Setting [7] is: FIG. 10, 1.5% DMSO two hours post-transfection compared with 0.75% DMSO.

Consider `C[S+](C)[O-]` [DMSO, dimethyl sulfoxide], for which the VG titer entry in test [1] (additive supplemented two hours post-transfection, ddPCR on crude lysate, over control conditions with no additive) was “general increase”; in test [4] (setting [5]), “increased”; in test [4] (setting [6]), “increased”; in test [4] (setting [7]), “comparable”. Further, the percent full capsids result is on record as “higher percent full capsids” in test [1] (supplemented two hours post-transfection, as compared to the other additives); “increased” in test [4] (FIG. 9, 0.5% to 2.25% DMSO two hours post-transfection); “comparable” in test [4] (FIG. 9, 0.5%, 0.75%, 1.5% and 2.25% DMSO compared with each other); “comparable” in test [4] (setting [6]); “increased” in test [4] (setting [7]). In addition, the “percent yield of full capsids” value in test [2] was “higher percent yield of full capsids”. In test [3], the VG titers result was “similar”. For the same molecule, the capsid yields entry in test [3] is “similar”. For the same molecule, in test [3], the intact vector genomes entry was “similar”. The figures for the capsid titer entry in test [4] (setting [5]), in test [4] (setting [6]) and in test [4] (setting [7]) were “increased or comparable”, “increased” and “decreased”, respectively.
